Laboratory results taken from US20260000632A1, “STRUCTURALLY MODIFIED FATTY ACIDS FOR IMPROVING GLYCEMIC CONTROL AND TREATING INFLAMMATORY BOWEL DISEASE” (Northsea Therapeutics B.V., priority 2018, published 2026).
Where two headings read alike, the source gives them in different places.

Assays:
[1] = test system: plasma insulin; assay: Plasma insulin at 24 h in lean male SPD rats; format: in vivo, rat; conditions: Compound A 74 mg/kg or Compound B 84 mg/kg oral, non-significant
Protocol: (§1) To establish the acute effects of oral administration of Compound A and Compound B upon active GLP-1 and insulin concentrations, lean (about 300 g) male Sprague-Dawley (SPD) rats were divided into groups (n=6-8) and fed 74 and 84 mg/kg body weight of Compound A or Compound B respectively, either with or without concurrent administration of a dipeptidyl peptidase 4 (DPP-4) inhibitor 60 minutes prior to an oral glucose tolerance test (OGTT) as outlined below. Parallel groups receiving either corn oil alone (corn oil+vehicle, n=10) or corn oil and a DPP-4 inhibitor (“DPP-4 i”) (corn oil+ (DPP-4 i), n=10) were included as controls. The DPP-4 inhibitor was linagliptin.
(§2) A second oral dose of 74 and 84 mg/kg bodyweight of Compound A or Compound B respectively was administered at 240 minutes and ad lib feeding was initiated. A second dose of DPP-4 inhibitor was administered at 480 mins prior to lights out. Blood samples were collected at 24 h for measurement of active GLP-1 and insulin. All values are mean, figures depict mean values (SEM).

[2] = test system: ob/ob mice; assay: Glucose tolerance after 21-day treatment in high-fat diet fed ob/ob mice; format: in vivo, mouse; conditions: 112 mg/kg once-daily via diet, 21 days
Protocol: This study was carried out to assess the effects of chronic treatment with Compound B or Compound A on glucose tolerance in a T2DM rodent model.
For assessing the effects of Compound A, ob/ob mice were fed a high-fat diet (comprising 2% cholesterol, 40% fat (containing 18% trans-fatty acids), 20% fructose) for 15 weeks starting at age 5 weeks. […] After 21 days the mice received a 2 g/kg oral glucose load. After the oral glucose load, plasma glucose was measured at multiple time points from 0-240 minutes.

[3] = test system: atherogenic lipids; conditions: humans; cited from earlier work
[4] = test system: active GLP-1; assay: Active GLP-1 during oral glucose tolerance test (OGTT) and at 24 h in lean male SPD rats; format: in vivo, rat
Protocol: as §1, §2

[5] = test system: ob/ob mice; assay: Oral glucose (2 g/kg) tolerance test after 5 weeks treatment in ob/ob mice; format: in vivo, mouse; conditions: for Plasma glucose AUC (0-120 min) / Plasma glucose, 0 min / Plasma glucose, 15 min / Plasma glucose, 30 min / Plasma glucose, 45 min / Plasma glucose, 60 min / Plasma glucose, 120 min: OGTT 2 g/kg, mean
Protocol: (§3) Mice were fed a standard low-fat (7% w/w fat) diet. After 4-weeks, the mice were fasted for 4 hours and the effects of Compound A were assessed. Assessment of the effects of Compound A included basal levels of blood glucose, plasma insulin, HbA1c levels, and homeostatic model assessment of insulin resistance (HOMA-IR). HOMA-IR is an assessment of insulin resistance and is calculated by the following formula: fasting insulin (micro U/L)×fasting glucose […]/22.5.
After 5 weeks, an oral glucose (2 g/kg) tolerance test was performed after a 4 hour fast.

[6] = test system: ob/ob mice; assay: Chronic treatment in ob/ob mice: basal parameters after 4 weeks; format: in vivo, mouse; conditions: 4 weeks diet admix, 4 h fast, Compound A 135, fenofibrate 100, pioglitazone 30 mg/kg bw/d, mean ± SEM; for Plasma adiponectin: control 4.3 ± 0.4; for Blood HbA1c: control 8.4 ± 0.4; for HOMA-IR: control 65.7 ± 9.8; for Plasma insulin: control 73.2 ± 13.6; for Plasma ALT: control 271.4 ± 18.8; for Blood glucose: control 380.8 ± 26.3
Protocol: as §3

[7] = test system: atherogenic lipids; conditions: APOE*3.CETP mice; cited from earlier work
[8] = test system: GLP-1; conditions: direct colonic delivery, rodents; cited from earlier work
[9] = 15 mg/kg bw/d diet admix 5 weeks
[10] = 45 mg/kg bw/d diet admix 5 weeks
[11] = 135 mg/kg bw/d diet admix 5 weeks
[12] = reference drugs: fenofibrate 100, pioglitazone 30 mg/kg bw/d diet admix 5 weeks

CC/C=C\C/C=C\C/C=C\C/C=C\C/C=C\CCCCOC(CC)C(=O)O (centres unmarked) [Compound A, 2-(((5Z,8Z,11Z,14Z,17Z)-icosa-5,8,11,14,17-pentaen-1-yl)oxy)butanoic acid]
Increase in plasma insulin concentration at 24 h versus corn oil+vehicle and corn oil+DPP4 inhibitor ([1]; compound alone): 25%
Increase in plasma insulin concentration at 24 h versus corn oil+vehicle and corn oil+DPP4 inhibitor ([1]; in combination with DPP4 inhibitor): 25%
Glucose tolerance from 15 minutes through 90 minutes post-glucose load compared to vehicle [2]: significantly improved glucose tolerance
AUC glucose ([2]; p<0.01): significantly reduced AUC glucose
Effect on atherogenic lipids [3]: significantly reduce atherogenic lipids
Effect on active GLP-1 concentration at 24 h versus corn oil+vehicle ([4]; in combination with DPP4 inhibitor, Compound A 74 mg/kg or Compound B 84 mg/kg oral, two doses): significantly (p<0.05) increased
Plasma glucose AUC (0-120 min) [5, 9]: 1760 mM·min
Plasma glucose, 0 min [5, 9]: 11.4 mM
Plasma glucose, 15 min [5, 9]: 37.5 mM
Plasma glucose, 30 min [5, 9]: 34.4 mM
Plasma glucose, 45 min [5, 9]: 28.0 mM
Plasma glucose, 60 min [5, 9]: 25.5 mM
Plasma glucose, 120 min [5, 9]: 19.6 mM
Plasma glucose AUC (0-120 min) [5, 10]: 1110 mM·min
Plasma glucose, 0 min [5, 10]: 13.3 mM
Plasma glucose, 15 min [5, 10]: 36.5 mM
Plasma glucose, 30 min [5, 10]: 30.1 mM
Plasma glucose, 45 min [5, 10]: 24.5 mM
Plasma glucose, 60 min [5, 10]: 21.0 mM
Plasma glucose, 120 min [5, 10]: 15.3 mM
Plasma glucose AUC (0-120 min) [5, 11]: 816 mM·min
Plasma glucose, 0 min [5, 11]: 9.2 mM
Plasma glucose, 15 min [5, 11]: 27.7 mM
Plasma glucose, 30 min [5, 11]: 22.1 mM
Plasma glucose, 45 min [5, 11]: 14.6 mM
Plasma glucose, 60 min [5, 11]: 13.4 mM
Plasma glucose, 120 min [5, 11]: 12.8 mM
Lowering of glucose levels in oral glucose tolerance test ([5]; 15, 45, 135 mg/kg bw/d diet admix 5 weeks): dose-dependent response in lowering glucose levels
Plasma adiponectin [6]: 3.8 ± 0.4 µg/mL
Blood HbA1c [6]: 4.5 ± 0.1 %
HOMA-IR [6]: 8.6 ± 3.6
Plasma insulin [6]: 17.6 ± 6.8 ng/mL
Plasma ALT [6]: 180.6 ± 14.6 U/L
Blood glucose [6]: 191.5 ± 6.1 mg/dL
Effect on atherogenic lipids [7]: significantly reduce atherogenic lipids

CC/C=C\C/C=C\C/C=C\C/C=C\C/C=C\C/C=C\CCC(=O)O [DHA]
GLP-1 secretion [8]: able to induce GLP-1 secretion

CC#CCn1c(N2CCC[C@@H](N)C2)nc2c1c(=O)n(Cc1nc(C)c3ccccc3n1)c(=O)n2C [DPP4 inhibitor, linagliptin, reference compound]
Effect on active GLP-1 concentration at 24 h ([4]; corn oil+DPP4 inhibitor alone): no significant effect
Effect on active GLP-1 (AUC 0-60 mins) versus corn oil alone ([4]; corn oil+DPP4 inhibitor alone, OGTT): no significant effect

CC(C)OC(=O)C(C)(C)Oc1ccc(C(=O)c2ccc(Cl)cc2)cc1 [Fenofibrate, fenofibrate, reference compound]
Plasma glucose AUC (0-120 min) [5, 12]: 1420 mM·min
Plasma glucose, 0 min [5, 12]: 15.4 mM
Plasma glucose, 15 min [5, 12]: 35.9 mM
Plasma glucose, 30 min [5, 12]: 35.9 mM
Plasma glucose, 45 min [5, 12]: 30.6 mM
Plasma glucose, 60 min [5, 12]: 28.2 mM
Plasma adiponectin [6]: 5.0 ± 0.4 µg/mL
Blood HbA1c [6]: 4.8 ± 0.2 %
HOMA-IR [6]: 20.3 ± 5.9
Plasma insulin [6]: 35.5 ± 9.0 ng/mL
Plasma ALT [6]: 224.0 ± 27.4 U/L
Blood glucose [6]: 220.3 ± 8.1 mg/dL

CCc1ccc(CCOc2ccc(CC3SC(=O)NC3=O)cc2)nc1 (centres unmarked) [Pioglitazone, pioglitazone, reference compound]
Plasma glucose AUC (0-120 min) [5, 12]: 879 mM·min
Plasma glucose, 0 min [5, 12]: 7.8 mM
Plasma glucose, 15 min [5, 12]: 24.2 mM
Plasma glucose, 30 min [5, 12]: 18.5 mM
Plasma glucose, 45 min [5, 12]: 17.3 mM
Plasma glucose, 60 min [5, 12]: 15.2 mM
Plasma glucose, 120 min [5, 12]: 10.9 mM
Blood HbA1c [6]: 3.8 ± 0.1 %
HOMA-IR [6]: 2.1 ± 0.3
Plasma insulin [6]: 5.7 ± 0.8 ng/mL
Plasma ALT [6]: 257.3 ± 15.5 U/L
Blood glucose [6]: 147.5 ± 3.1 mg/dL
